Experimental data taken from EP4501920A1, “NOVEL PYRAZOLE DERIVATIVES” (Aptabio Therapeutics Inc., priority 2022, dated 2023).

What was measured:
[1] = tested on: human foreskin fibroblasts (HFF-1, ATCC); assay: Collagen gel contraction induced by TGF-β1; assay type: cell-based; details: HFF-1 cells and bovine type I collagen; TGF-β1 (10 ng/ml); 72 hours; FIG. 7
Text: In order to confirm the effect of the compounds of Synthetic examples on differentiation of fibroblasts into myofibroblasts, the inhibitory effect of the compounds of Synthetic examples on the phenomenon of contraction of gel induced by interaction of human foreskin fibroblasts (HFF-1, ATCC) and collagen was observed.
The mixed solution of the HFF-1 cells and collagen (bovine type I collagen) prepared at a concentration of 3×10^6 cells/ml was aliquoted in a 24 well plate, respectively, and then cultured under the condition of 5% CO2, 37 °C for 1 hour to induce gel polymerization. Then, after suspending the gel attached on the plate from the plate using a spoon, a medium comprising TGF-β1 and Synthetic example compounds was added to each well. After culturing for 72 hours, the Synthetic example compounds were treated by 10, 20, 30, 40, 60 and 80 µM to measure the size of the gel, and thereby, the degree of contraction of the gel by drug treatment was confirmed.

[2] = tested on: N27 (rat dopaminergic neural cell, Sigma) cells; assay: ROS production induced by alpha-synuclein preformed fibril (PFF) in dopaminergic neural cells (CellROX-Deep Red); assay type: cell-based; details: 0.001 µM, 24 hours, FIG. 2
Description: In order to confirm the effect of the compounds of Synthetic examples on ROS production from dopaminergic neural cells, ROS production was induced by alpha-synuclein preformed fibril (PFF) stimulation on N27 (rat dopaminergic neural cell, Sigma) cells and under this condition, the inhibitory effect of ROS production of the compounds of Synthetic examples was observed.
The N27 cells were cultured in RPMI medium containing 10% FBS, 1 µM angiotensin II, and the prepared cells were aliquoted at a concentration of 4×10^3 cells/well on a 6-well plate. The ROS production stimulus, PFF (preformed fibril) and the compounds of Synthetic examples were treated to the cells. After treating the compounds of Synthetic examples for 24 hours, fluorescence of each well was measured using CellROX-Deep Red reagent, thereby confirming the degree of ROS production.

[3] = tested on: NHLF (normal human lung fibroblast); assay: ROS production induced by PMA in NHLF cells; assay type: cell-based; details: FIG. 1
Text: (§1) In order to confirm the effect of the compounds of Synthetic examples on ROS production from fibroblasts and specific substrate cells, ROS production was induced by stimulation of PMA (phorbol 12-myristate 13-acetate), TGF-β1, palmitate or high concentration-glucose, or the like, in HL-60 cells differentiated into neutrophil cells by DMSO treatment, NHLF (normal human lung fibroblast, Lonza), LX-2 (human hepatic stellate cells, Sigma), ARPE19 (human retinal pigment epithelial cell, ATCC), and KEL-FIB (Keloid fibroblast, ATCC) cells, and under this condition, the inhibitory effect of ROS production of the compounds of Synthetic examples was observed.
(§2) The NHLF (normal human lung fibroblast, Lonza), LX-2 (human hepatic stellate cells, Sigma), ARPE19 (human retinal pigment epithelial cell, ATCC), KEL-FIB (keloid fibroblast, ATCC) cells were suspended in a culture medium containing 10% FBS and aliquoted on a 96 well plate and then cultured under the condition of 5% CO2, 37°C for 24 hours. After pre-treating the compounds of Synthetic examples at a concentration of 10, 20, 30, 40, 60 and 80 µM for 30 minutes to 1 hour, the ROS stimulus was treated to each well containing the cells and drug. After additional culturing for 48 hours, the ROS production level was confirmed using L-012 or DCF-DA.

[4] = tested on: LX-2 (human hepatic stellate cells); assay: ROS production induced by PMA in LX-2 cells; assay type: cell-based; details: FIG. 1
Text: as §1, §2

IL-8 = assay: Expression of IL-8 in pancreatic cancer associated fibroblasts (ELISA); assay type: cell-based, human; details: P.CAF cells; compounds 10, 20, 30, 40, 60 and 80 µM for 48 hours; FIG. 6
Description: (§3) In order to confirm the effect of the compounds of Synthetic examples of the present invention on inflammation reaction in cancer associated fibroblasts, whether the expression of IL6 and IL8 was inhibited by the compounds of Synthetic examples in pancreatic cancer associated fibroblasts (PCAF) was observed.
(§4) After inoculating 1.5×10^5 cells in a 6 well plate and then culturing in P.CAF complete media for 48 hours, the compounds of Synthetic examples were treated by 10, 20, 30, 40, 60 and 80 µM for 48 hours according to each condition, and then the expression of IL-6 and IL-8 was confirmed by performing ELISA with Quantkine ELISA kit (R&D systems) as follows.
(§5) 100 µl of the culture solution in which the compounds of Synthetic examples were treated for 48 hours was added to the microplate strip for analysis including a 100 µl assay diluent and left at a room temperature for 2 hours and then the contents were removed, and then it was washed with 400 µl wash buffer 4 times. 200 µl of a human IL-6 or IL-8 conjugate was added and left at a room temperature for 2 hours and then the contents were removed, and then it was washed with 400 µl wash buffer 4 times. 200 µl of substrate solution was added and left at a room temperature for 20 minutes and then 50 µl of stop solution was added, and the absorbance at a wavelength of 450nm was measured within 30 minutes to confirm the expression level of IL-6 and IL-8.

IL-6 = assay: Expression of IL-6 in pancreatic cancer associated fibroblasts (ELISA); assay type: cell-based, human; details: P.CAF cells; compounds 10, 20, 30, 40, 60 and 80 µM for 48 hours; FIG. 5
Description: as §3, §4, §5

[5] = tested on: alpha-synuclein preformed fibril (PFF) injection Parkinson's disease mouse model; assay: Brain damage treatment effect in PFF injection Parkinson's disease mouse model; assay type: in vivo, C57Bl/6 mice; details: 25 mg/kg orally once a day for 7 weeks
Description: In order to test the effect for preventing or treating brain disease or disorder of the compounds of Synthetic examples, it was evaluated using an alpha-synuclein preformed fibril (PFF) injection Parkinson's disease mouse model.
C57Bl/6 mice were used, and all the mice were maintained under the standard condition. The experiment was conducted by dividing the experimental animals into a normal control group in which distilled water was orally administered (negative control), an alpha-synuclein preformed fibril (PFF) injection Parkinson's disease induction group (vehicle control), and an experimental group in which the compound of Synthetic example 16 of 25 mg/kg was orally administered into the alpha-synuclein preformed fibril (PFF) injection Parkinson's induction group daily (Synthetic example) with 8 animals in each group. For the normal control group, physiological saline solution was administered, and the Synthetic example compound was orally administered once a day for 7 weeks, and then a behavior change experiment and a histopathological experiment were performed.
The behavior change was analyzed by Rota rod, pole test and hindlimb clasping, and the average value of the 3 experiments per each animal was measured. […]

Row | SMILES | contraction of the gel induced by TGF-β1 [1] | ROS production induced by PFF [2] | IL-8 expressed in P.CAF (IL-8) | IL-6 expressed in P.CAF (IL-6) | also measured
1 | Oc1c2c(nn1-c1ccccn1)CCC(N1CCCCC1)C2 (stereo not drawn) [Compound 14, 5-Piperidin-1-yl-2-(pyridin-2-yl)-4,5,6,7-tetrahydro-2H-indazol-3-ol] | effectively inhibited |  |  |  | 
2 | CN1CCN(C2CCc3nn(-c4ccc(C(F)(F)F)cn4)c(O)c3C2)CC1 (stereo not drawn) [Compound 82, 5-(4-Methylpiperazin-1-yl)-2-(5-(trifluoromethyl)pyridin-2-yl)-4,5,6,7-tetrahydro-2H-indazol-3-ol] |  | effectively inhibited |  |  | 
3 | Oc1c2c(nn1-c1ccccn1)CCC(Nc1ccc(F)c(F)c1)C2 (stereo not drawn) [Compound 32, 5-(3,4-Difluorophenylamino)-2-(pyridin-2-yl)-4,5,6,7-tetrahydro-2H-indazol-3-ol] |  | effectively inhibited |  |  | 
4 | OCCOCCN1CCN(C2CCc3nn(-c4ccccn4)c(O)c3C2)CC1 (stereo not drawn) [Compound 17] |  |  |  |  | ROS production induced by PMA [3]: inhibited; ROS production induced by PMA [4]: inhibited
5 | O=C(C1CC1)N1CCN(C2CCc3nn(-c4ccccn4)c(O)c3C2)CC1 (stereo not drawn) [Compound 38, Cyclopropyl[4-(3-hydroxy-2-(pyridin-2-yl)-4,5,6,7-tetrahydro-2-indazol-5-yl)piperazin-1-yl]methanone] | effectively inhibited |  | effectively inhibited | effectively inhibited | 
6 | COc1cccc(CN(C)C2CCc3nn(-c4ccccn4)c(O)c3C2)c1 (stereo not drawn) [Compound 13, 5-[(3-Methoxybenzyl)methylamino]-2-(pyridin-2-yl)-4,5,6,7-tetrahydro-2H-indazol-3-ol] | effectively inhibited |  |  |  | 
7 | CN1CCN(C2CCc3nn(-c4ccccn4)c(O)c3C2)CC1 (stereo not drawn) [Compound 16, 5-(4-Methylpiperazin-1-yl)-2-(pyridin-2-yl)-4,5,6,7-tetrahydro-2H-indazol-3-ol] | effectively inhibited | effectively inhibited |  |  | Parkinson-like behavior symptoms improved ([5]; Rota rod, pole test, hindlimb clasping): ≥ 50%; aggregation and accumulation of a-synuclein improved ([5]; striatum histopathology): ≥ 50%
8 | CN(Cc1cc2ccccc2cn1)C1CCc2nn(-c3ccccn3)c(O)c2C1 (stereo not drawn) [Compound 62, 5-[(Isoquinolin-3-ylmethyl)methylamino]-2-(pyridin-2-yl)-4,5,6,7-tetrahydro-2H-indazol-3-ol] | effectively inhibited |  | effectively inhibited | effectively inhibited | 
9 | CN(Cc1cccc(S(C)(=O)=O)c1)C1CCc2nn(-c3ccccn3)c(O)c2C1 (stereo not drawn) [Compound 23, 5-[Methyl(3-methylsulfonylbenzyl)amino]-2-(pyridin-2-yl)-4,5,6,7-tetrahydro-2H-indazol-3-ol] | effectively inhibited |  | effectively inhibited | effectively inhibited | 
10 | CN(Cc1ccc(S(C)(=O)=O)cc1)C1CCc2nn(-c3ccccn3)c(O)c2C1 (stereo not drawn) [Compound 12, 5-[(4-Methanesulfonylbenzyl)methylamino]-2-(pyridin-2-yl)-4,5,6,7-tetrahydro-2H-indazol-3-ol] | effectively inhibited | effectively inhibited |  |  | 
11 | CN(Cc1ccc2ncccc2c1)C1CCc2nn(-c3ccccn3)c(O)c2C1 (stereo not drawn) [Compound 63, 5-[Methyl(quinolin-6-ylmethyl)amino]-2-(pyridin-2-yl)-4,5,6,7-tetrahydro-2H-indazol-3-ol] | effectively inhibited |  | effectively inhibited | effectively inhibited | 
12 | CN(C1CCc2nn(-c3ccccn3)c(O)c2C1)C1CCCc2cccnc21 (stereo not drawn) [Compound 33, 5-[Methyl(5,6,7,8-tetrahydroquinolin-8-yl)amino]-2-(pyridin-2-yl)-4,5,6,7-tetrahydro-2H-indazol-3-ol] | effectively inhibited |  | effectively inhibited | effectively inhibited | 
13 | CN(Cc1ccc(F)cc1F)C1CCc2nn(-c3ccccn3)c(O)c2C1 (stereo not drawn) [Compound 5, 5-[(2,4-Difluorobenzyl)methylamino]-2-(pyridin-2-yl)-4,5,6,7-tetrahydro-2H-indazol-3-ol] | effectively inhibited |  | effectively inhibited | effectively inhibited | 
